{
  "source": "ChEMBL document CHEMBL1155467",
  "about": "“Semisynthesis and acetylcholinesterase inhibitory activity of stemofoline alkaloids and analogues” (J Nat Prod, 2010)",
  "assay": "Inhibition of AChE assessed as minimum drug level causing white zone of enzyme inhibition by TLC bioautography",
  "data": [
    {"smiles": "COC1=C(C)C(=O)O/C1=C1\\O[C@@]23OC4CC(C2[C@H]1C)N1CCC3[C@]41/C=C/[C@@H](C)O", "note": "(some centres not stated)", "values": [
      {"measurement": "MIC", "result": 1.25, "unit": "nM"}
    ]},
    {"smiles": "CCCCC12C3CC4C5[C@@H](C)[C@](O)([C@]6(O)OC(=O)C(C)=C6OC)O[C@]5(O3)C1CCN42", "note": "(some centres not stated)", "values": [
      {"measurement": "MIC", "result": 1.19, "unit": "nM"}
    ]}
  ]
}
